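Five compound concentrations were applied to cells in 96-well plates for 48 hours; endpoints were derived by simple linear interpolation of the resulting dose-response curve. At the GI50, growth is halved. TGI denotes the concentration required for complete inhibition of growth.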
What was measured:
Assay in all cases: DTP human tumour cell line panel, 48 h
A498 renal = system: A498 renal
MALME-3M melanoma = system: MALME-3M melanoma
OVCAR-8 ovarian = system: OVCAR-8 ovarian
HCT-116 colon = system: HCT-116 colon
A549 NSCLC = system: A549 NSCLC
SNB-19 CNS = system: SNB-19 CNS
UO-31 renal = system: UO-31 renal
SR leukemia = system: SR leukemia
NCI-H226 lung = system: NCI-H226 lung

| SMILES | TGI (A498 renal) [µM] | TGI (MALME-3M melanoma) [µM] | TGI (OVCAR-8 ovarian) [µM] | TGI (HCT-116 colon) [µM] | TGI (A549 NSCLC) [µM] | TGI (SNB-19 CNS) [µM] | TGI (UO-31 renal) [µM] | TGI (SR leukemia) [µM] | GI50 (A498 renal) [µM] | GI50 (MALME-3M melanoma) [µM] | GI50 (OVCAR-8 ovarian) [µM] | GI50 (HCT-116 colon) [µM] | GI50 (A549 NSCLC) [µM] | GI50 (SNB-19 CNS) [µM] | GI50 (NCI-H226 lung) [µM] | TGI (NCI-H226 lung) [µM] | GI50 (UO-31 renal) [µM] | GI50 (SR leukemia) [µM] |
| --- | --- | --- | --- | --- | --- | --- | --- | --- | --- | --- | --- | --- | --- | --- | --- | --- | --- | --- |
| CCOC(=O)C1CC(=O)C=C2CCCCC21 (configuration not stated) | > 100 | > 100 | > 100 | > 100 | > 100 | > 100 | > 100 | – | – | – | – | – | – | – | – | – | – | – |
| O=C(O)c1cnc2c(ccc3[nH]cccc32)c1=O | > 100 | > 100 | > 100 | > 100 | > 100 | > 100 | > 100 | > 100 | – | – | – | – | – | – | – | – | – | – |
| COc1ccc(C)c2sc(N(Cc3cccnc3)C(=O)c3ccc(C#N)cc3)nc12 | 95.5 | > 100 | > 100 | > 100 | > 100 | > 100 | > 100 | – | 2.21 | 52.1 | 48.1 | 29.2 | 43.6 | 94.7 | 54.4 | > 100 | 23.4 | – |
| CCOC(=O)NC(=O)c1cn(CCSCCOC(=O)NCCCCCCNC(=O)OCCSCCn2cc(C(=O)NC(=O)OCC)c(=O)n(C)c2=O)c(=O)n(C)c1=O | – | 72.2 | 65.9 | 52.6 | > 100 | > 100 | > 100 | > 100 | – | – | – | – | – | – | – | 73.8 | – | – |
| O=CCCn1[nH]c(=O)ccc1=O | > 100 | > 100 | > 100 | > 100 | > 100 | > 100 | > 100 | > 100 | – | – | – | – | – | – | – | > 100 | – | – |
| O=S1Nc2cccc(C(F)(F)F)c2S1 (configuration not stated) | 97.3 | > 100 | > 100 | > 100 | > 100 | > 100 | > 100 | > 100 | – | – | – | – | – | – | – | > 100 | – | – |
| COc1ccc(C2(Cl)C(Cl)(C(F)(F)F)C2(Cl)C(F)(F)F)cc1 (configuration not stated) | – | – | 25.2 | 23.9 | 28.1 | 29.1 | 29.5 | 30.7 | – | – | – | – | – | – | – | 28.9 | – | – |
| O/N=C1/CCCC/C1=C\c1ccc(Cl)c(Cl)c1 | 84.5 | – | > 100 | 35.8 | > 100 | 91.6 | 46.2 | – | – | – | – | – | – | – | – | – | – | – |
| C[C@@H]1CC[C@@]2(C)OC(c3ccccc3)[C@H](CO)N2C1=O (some centres not stated) | > 100 | > 100 | > 100 | > 100 | > 100 | > 100 | – | > 100 | – | – | – | – | – | – | – | – | – | – |
| C=CC12CCCCC1CC(C(=O)OC)=C(O)C2 (configuration not stated) | – | – | > 100 | > 100 | > 100 | > 100 | > 100 | > 100 | – | – | – | – | – | – | – | > 100 | – | – |
| NC1=NN(c2ccccc2)C(=O)C1C(=O)C(=O)Nc1ccccc1 (configuration not stated) | > 100 | > 100 | > 100 | > 100 | > 100 | > 100 | > 100 | – | – | – | – | – | – | – | – | > 100 | – | – |
| COc1ccc2cc3c4cc(OC)c(OC)cc4ccn3c2c1 | > 100 | > 100 | > 100 | – | > 100 | > 100 | > 100 | > 100 | – | – | – | – | – | – | – | > 100 | – | – |
| CCCCCCCCCCCCCCCCc1c(C(=O)OC)nc(NC#N)[nH]c1=O | > 25 | > 25 | > 25 | > 25 | > 25 | > 25 | > 25 | – | – | – | – | – | – | – | – | > 25 | – | – |
| C=C(C)CC(C(=O)O)c1ccc(C)cc1 (configuration not stated) | > 100 | > 100 | > 100 | > 100 | > 100 | > 100 | – | > 100 | – | – | – | – | – | – | – | – | – | – |
| c1cc[c]([Ge]([O]c2cccc3cccnc23)([c]2ccccc2)[c]2ccccc2)cc1 | 25.7 | 22.4 | 10.6 | 12.7 | 21.7 | 19.5 | 23.7 | – | 13 | 10.4 | 3.25 | 3.41 | 5.34 | 7.15 | 6.33 | 23 | 11.5 | – |
| CN(C)CC1(C)CC/C(=C\c2ccc(Cl)cc2)C1=O (configuration not stated) | > 100 | > 100 | > 100 | > 100 | > 100 | 65.2 | > 100 | – | – | – | – | – | – | – | – | > 100 | – | – |
| C[C@]12Cc3conc3C(O)=C1CC[C@@H]1C2CC[C@@]2(C)C1CC[C@@H]2O (some centres not stated) | 57.7 | 87.2 | 88.5 | – | 85.2 | > 100 | 53.3 | – | – | – | – | – | – | – | – | 56.8 | – | – |
| COc1cccc2c1C(=O)c1c(O)c3c(c(O)c1C2=O)C[C@](O)(C(=O)CO)C[C@H]3O[C@@H]1C[C@@H](NC(=O)CCCN(C)C2(c3ccc(F)cc3)CC3CCC2C3)[C@H](O)[C@@H](C)O1 (some centres not stated) | 12.5 | 1.76 | 2.36 | 1.47 | – | 2.19 | 14.5 | 1.52 | 5.31 | 0.914 | 0.913 | 0.742 | – | 0.9 | 3.53 | 15.7 | 6.23 | 0.311 |

From PubChem BioAssay (NCI)
